Like-named read-outs stand apart in the source and are kept apart here. *1 amine or outer side, *2 acyl side, *3 side chain or, on linkers, in order; H or OH if unused. Where a SMILES comes first, the peptide text is derived from it. [ ]: non-standard residue; d: D form. The star is where a group is joined. d(pY) = N[C@H](Cc1ccc(OP(=O)(O)O)cc1)C(=O)O; pY = N[C@@H](Cc1ccc(OP(=O)(O)O)cc1)C(=O)O; d(pS) = N[C@H](COP(=O)(O)O)C(=O)O; Guanidinoacetyl = N=C(N)NCC(=O)*; X2 = Cn1cc(N[*:1])cc1C(=O)[*:2]; X1 = Cn1cc(N)cc1C(=O)*
Assays:
HeLa cells = test: MTT cell viability of HeLa cells
Protocol: We examined the cytotoxicity of the synthesized compounds by incubating them with HeLa cells because HeLa cells overexpress ALP and are widely available. By incubating 200 μM of each compound with HeLa cells for 24 hours, we employed MTT assay to determine the cell viability of the HeLa cells. […]
S3. Cel l culture and cell viability
HeLa cell line was purchased from American Type Culture Collection (ATCC, Manassas, VA, USA). HeLa cells were cultured in MEM medium with 100 U mL-1 penicillin and 100 μg mL-1 streptomycin. Cells were cultured at 37 °C in a humidified atmosphere of 5% CO 2.
MTT assay was used to determine the cytotoxicity of the compounds against HeLa cells.
Cells were seeded in 96-well plate at 1.0 × 10^5 cells/well for 24 hours followed by culture medium removal. Fresh culture medium containing different concentrations of compounds were then added. After incubated at 37 °C for 24/48/72 hours, the culture medium with compounds were replaced by fresh culture m edium plus 10 μL of MTT solution (5 mg/mL). After incubated at 37 °C for another 4 hours, 100 μL of SDS-HCl solution was added to stop the reduction and dissolve formazan formed. A DTX880 […]
Multimode Detector was used to measure the absorbance of each well at 595 nm, and cell viability was calculated as percentage relative to untreated cells. Data were […]

[1] = TEM morphology of peptide assemblies before and after ALP; assay type: physicochemical; details: 400 μM and 200 μM, PBS buffer pH 7.4
From the text: Figure 3 A) TEM images of 1 before and after addition of ALP (0.5 U/mL) in PBS buffer (pH 7.4). Scale bar is 100 nm. Figure 3A was reprinted with permission from https://pubs.acs.org/doi/10.1021/bm5010355, Copyright 2014 American Chemical Society. This content is not subjected to CC-BY 4.0. Permission requests related to the material excerpted should be directed to the ACS. […] Scale bar is 200 nm.
Figure S1. Cell viability of HeLa cells treated with different compounds.
S4. TEM sample preparation
400-mesh copper grids coated with continuous thick carbon film (~35 nm) were glow discharged, on which 3 μL of samples were placed. After washed with ddH2O and uranyl acetate (UA), the sample-loaded grids were stained with UA. The residual UA was removed by filter paper and then air-dried.

[2] = Circular dichroism of assemblies before and after ALP; assay type: physicochemical; details: circular dichroism before and after ALP (Figure S34)
From the text: In addition to the TEM images, we used circular dichroism (CD) to reveal the secondary structures of the assemblies before and after enzymatic action.

[3] = design: method as in PMID 25230147; details: TEM, ALP 0.5 U/mL, PBS buffer pH 7.4; cited from earlier work

SMILES: Cn1cc(N)cc1C(=O)Nc1cc(C(=O)Nc2cc(C(=O)N[C@H](Cc3ccccc3)C(=O)N[C@H](Cc3ccccc3)C(=O)N[C@H](Cc3ccc(OP(=O)(O)O)cc3)C(=O)O)n(C)c2)n(C)c1 [2b]
- Cell viability of HeLa cells (HeLa cells; 24 h, 200 μM): 142.6%

SMILES: Cn1cc(N)cc1C(=O)NCC(=O)NCC(=O)NCC(=O)N[C@H](Cc1ccccc1)C(=O)N[C@H](Cc1ccccc1)C(=O)N[C@H](Cc1ccc(OP(=O)(O)O)cc1)C(=O)O [2f, Py-GGGffpy] (X1-GGG[dF][dF][d(pY)]-OH)
- Cell viability of HeLa cells (HeLa cells; 24 h, 200 μM): 92.8%

SMILES: Cn1cc(NC(=O)c2cc(N)cn2C)cc1C(=O)NCC(=O)NCC(=O)NCC(=O)N[C@@H](Cc1ccccc1)C(=O)N[C@@H](Cc1ccccc1)C(=O)N[C@@H](Cc1ccc(OP(=O)(O)O)cc1)C(=O)O [3a] (X1-[X2]GGGFF[pY]-OH)
- Cell viability of HeLa cells (HeLa cells; 24 h, 200 μM): 86.0%

SMILES: Cn1cc(NC(=O)c2cc(NC(=O)c3cc(N)cn3C)cn2C)cc1C(=O)NCC(=O)NCC(=O)NCC(=O)N[C@@H](Cc1ccccc1)C(=O)N[C@@H](Cc1ccccc1)C(=O)N[C@@H](Cc1ccc(OP(=O)(O)O)cc1)C(=O)O [3b] (X1-[X2][X2]GGGFF[pY]-OH)
- Cell viability of HeLa cells (HeLa cells; 24 h, 200 μM): 97.2%

SMILES: Cn1cc(NC(=O)c2cc(N)cn2C)cc1C(=O)NCC(=O)NCC(=O)NCC(=O)N[C@H](Cc1ccccc1)C(=O)N[C@H](Cc1ccccc1)C(=O)N[C@H](COP(=O)(O)O)C(=O)O [4a] (X1-[X2]GGG[dF][dF][d(pS)]-OH)
- Cell viability of HeLa cells (HeLa cells; MTT, 200 μM, 24 h, 37 °C, absorbance 595 nm, relative to untreated cells, n = 3 wells): 69.2%
- Cell viability of HeLa cells (HeLa cells; MTT, 400 μM, day 1, n = 3 wells): 72.3%
- Inhibition of HeLa cell proliferation (in words) (HeLa cells; MTT, 20 to 400 μM, day 2 and 3): largely vanishes
- Change of morphology of the assemblies after ALP ([1]; 1 U/mL ALP, 24 h): little change in the morphology
- Morphology of the assemblies before ALP [1]: networks of nanoparticles
- Change of CD signal upon ALP treatment [2]: merely slight changes

SMILES: Cn1cc(NC(=O)CNC(=N)N)cc1C(=O)NCC(=O)NCC(=O)NCC(=O)N[C@H](Cc1ccccc1)C(=O)N[C@H](Cc1ccccc1)C(=O)N[C@H](Cc1ccc(OP(=O)(O)O)cc1)C(=O)O [10a] (Guanidinoacetyl-[X2]GGG[dF][dF][d(pY)]-OH)
- Cell viability of HeLa cells (HeLa cells; 24 h, 200 μM): about 70%

SMILES: Cn1cc(NC(=O)c2cc(NC(=O)CNC(=N)N)cn2C)cc1C(=O)NCC(=O)NCC(=O)NCC(=O)N[C@H](Cc1ccccc1)C(=O)N[C@H](Cc1ccccc1)C(=O)N[C@H](Cc1ccc(OP(=O)(O)O)cc1)C(=O)O [10b] (Guanidinoacetyl-[X2][X2]GGG[dF][dF][d(pY)]-OH)
- Cell viability of HeLa cells (HeLa cells; 24 h, 200 μM): about 70%

SMILES: O=C(Cc1ccc2ccccc2c1)N[C@H](Cc1ccccc1)C(=O)N[C@H](Cc1ccccc1)C(=O)N[C@H](Cc1ccc(OP(=O)(O)O)cc1)C(=O)O [compound 1, Nap-ffpy, reference compound]
- Inhibition / compatibility with HeLa cells (in words) (HeLa cells; 400 μM): significantly inhibits
- Inhibition of HeLa cell proliferation (in words) (HeLa cells; MTT, 200 μM, day 3): begins to reduce cell viability
- Inhibition of HeLa cell proliferation (in words) (HeLa cells; MTT, concentrations lower than 100 μM, over 3 days): hardly inhibits
- Change of CD signal upon ALP treatment [2]: significant change
- Change of morphology of the assemblies after ALP [3]: morphological transition from nanoparticles of 1 to networks of nanofibers

SMILES: Cn1cc(NC(=O)OC(C)(C)C)cc1C(=O)Nc1cc(C(=O)N[C@H](Cc2ccccc2)C(=O)N[C@H](Cc2ccccc2)C(=O)N[C@H](Cc2ccc(OP(=O)(O)O)cc2)C(=O)O)n(C)c1 [compound 9]
- Cell viability of HeLa cells (HeLa cells; 24 h, 200 μM): about 70%

Source: paper PMC8822458, “Synthesis and bioactivity of pyrrole-conjugated phosphopeptides” (Beilstein Journal of Organic Chemistry, 2022)
